Test results from ChEMBL document CHEMBL1142427, “Cytotoxic triterpenoid saponins acylated with monoterpenic acid from Pithecellobium lucidum” (J Nat Prod, 2008).

Tests used:
BGC-823 = assay: Cytotoxicity against human BGC823 cells after 96 hrs by MTT assay; assay type: functional, cell-based; conditions: BGC-823, 96 h
[1] = Toxicity in rabbit erythrocytes assessed as hemolysis at 0.01 uM to 100 uM; assay type: cell-based, Oryctolagus cuniculus; conditions: erythrocyte
Bel-7402 = assay: Cytotoxicity against human Bel7402 cells after 96 hrs by MTT assay; assay type: functional, cell-based; conditions: Bel-7402, 96 h
A549 = assay: Cytotoxicity against human A549 cells after 96 hrs by MTT assay; assay type: functional, cell-based; conditions: A549, 96 h
HCT-8 = assay: Cytotoxicity against human HCT8 cells after 96 hrs by MTT assay; assay type: functional, cell-based; conditions: HCT-8, 96 h
A2780 = assay: Cytotoxicity against human A2780 cells after 96 hrs by MTT assay; assay type: functional, cell-based; conditions: A2780, 96 h

| Structure (SMILES) | IC50 (BGC-823) [µM] | Activity [1] | IC50 (Bel-7402) [µM] | IC50 (A549) [µM] | IC50 (HCT-8) [µM] | IC50 (A2780) [µM] |
| --- | --- | --- | --- | --- | --- | --- |
| C[C@H]1O[C@@H](OC[C@H]2O[C@@H](O[C@H]3CC[C@]4(C)[C@H]5CC=C6[C@@H]7CC(C)(C)[C@@H](O)C[C@]7(C(=O)O)[C@H](O)C[C@@]6(C)[C@]5(C)CC[C@H]4C3(C)C)[C@H](O)[C@@H](O)[C@@H]2O)[C@H](O[C@@H]2OC[C@@H](O)[C@H](O)[C@H]2O)[C@@H](O)[C@H]1O | > 10 | Non-toxic | > 10 | > 10 | > 10 | > 10 |
| C=C[C@@](C)(CC/C=C(\CO)C(=O)O[C@H]1C[C@]2(C(=O)O[C@@H]3O[C@H](CO)[C@@H](O)[C@H](O)[C@H]3O[C@@H]3O[C@@H](C)[C@H](O[C@@H]4O[C@@H](CO)[C@H](O)[C@H]4O)[C@@H](O[C@@H]4O[C@H](CO)[C@@H](O)[C@H](O)[C@H]4O)[C@H]3O)[C@H](O)C[C@]3(C)C(=CC[C@@H]4[C@@]5(C)CC[C@H](O[C@@H]6O[C@H](CO[C@@H]7O[C@H](C)[C@H](O)[C@H](O)[C@H]7O[C@@H]7OC[C@@H](O)[C@H](O)[C@H]7O)[C@@H](O)[C@H](O)[C@H]6O)C(C)(C)[C@@H]5CC[C@]43C)[C@@H]2CC1(C)C)O[C@@H]1O[C@H](C)[C@@H](O)[C@H](O)[C@H]1O | > 10 | Non-toxic | > 10 | > 10 | 1.5 | 1.35 |
| CC[C@@]1(O)C(=O)OCc2c1cc1n(c2=O)Cc2cc3ccccc3nc2-1 [CAMPTOTHECIN] | 9.67 | – | 12.5 | 3.12 | 3.15 | 0.28 |
| C=C[C@@](C)(CC/C=C(\CO)C(=O)O[C@H]1C[C@]2(C(=O)O[C@@H]3O[C@H](CO)[C@@H](O)[C@H](O)[C@H]3O[C@@H]3O[C@@H](C)[C@H](O[C@@H]4O[C@@H](CO)[C@H](O)[C@H]4O)[C@@H](O[C@@H]4O[C@H](CO)[C@@H](O)[C@H](O)[C@H]4O)[C@H]3O)[C@H](O)C[C@]3(C)C(=CC[C@@H]4[C@@]5(C)CC[C@H](O[C@@H]6O[C@H](CO[C@@H]7O[C@H](C)[C@H](O)[C@H](O)[C@H]7O[C@@H]7OC[C@@H](O)[C@H](O)[C@H]7O)[C@@H](O)[C@H](O)[C@H]6NC(C)=O)C(C)(C)[C@@H]5CC[C@]43C)[C@@H]2CC1(C)C)O[C@@H]1O[C@H](C)[C@@H](O)[C@H](O)[C@H]1O [JULIBROSIDE J29] | 1.9 | Non-toxic | 1.65 | 1.8 | 1.5 | 0.61 |
| C=C[C@@](C)(CC/C=C(\CO)C(=O)O[C@H]1C[C@]2(C(=O)O[C@@H]3O[C@H](CO)[C@@H](O)[C@H](O)[C@H]3O[C@@H]3O[C@@H](C)[C@H](O[C@@H]4O[C@@H](CO)[C@H](O)[C@H]4O)[C@@H](O[C@@H]4O[C@H](C)[C@@H](O)[C@H](O)[C@H]4O)[C@H]3O)[C@H](O)C[C@]3(C)C(=CC[C@@H]4[C@@]5(C)CC[C@H](O[C@@H]6O[C@H](CO[C@@H]7O[C@H](C)[C@H](O)[C@H](O)[C@H]7O[C@@H]7OC[C@@H](O)[C@H](O)[C@H]7O)[C@@H](O)[C@H](O)[C@H]6O)C(C)(C)[C@@H]5CC[C@]43C)[C@@H]2CC1(C)C)O[C@@H]1O[C@H](C)[C@@H](O)[C@H](O)[C@H]1O [PITHELUCOSIDE A] | > 10 | Non-toxic | > 10 | > 10 | > 10 | > 10 |
| C=C[C@](C)(O)CC/C=C(\CO)C(=O)O[C@H]1C[C@]2(C(=O)O[C@@H]3O[C@H](CO)[C@@H](O)[C@H](O)[C@H]3O[C@@H]3O[C@@H](C)[C@H](O[C@@H]4O[C@@H](CO)[C@H](O)[C@H]4O)[C@@H](O[C@@H]4O[C@H](CO)[C@@H](O)[C@H](O)[C@H]4O)[C@H]3O)[C@H](O)C[C@]3(C)C(=CC[C@@H]4[C@@]5(C)CC[C@H](O[C@@H]6O[C@H](CO[C@@H]7O[C@H](C)[C@H](O)[C@H](O)[C@H]7O[C@@H]7OC[C@@H](O)[C@H](O)[C@H]7O)[C@@H](O)[C@H](O)[C@H]6O)C(C)(C)[C@@H]5CC[C@]43C)[C@@H]2CC1(C)C [PITHELUCOSIDE B] | > 10 | Non-toxic | 2.54 | > 10 | > 10 | 1.23 |
| C/C(=C\CO)CC/C=C(\CO)C(=O)O[C@H]1C[C@]2(C(=O)O[C@@H]3O[C@H](CO)[C@@H](O)[C@H](O)[C@H]3O[C@@H]3O[C@@H](C)[C@H](O[C@@H]4O[C@@H](CO)[C@H](O)[C@H]4O)[C@@H](O[C@@H]4O[C@H](CO)[C@@H](O)[C@H](O)[C@H]4O)[C@H]3O)[C@H](O)C[C@]3(C)C(=CC[C@@H]4[C@@]5(C)CC[C@H](O[C@@H]6O[C@H](CO[C@@H]7O[C@H](C)[C@H](O)[C@H](O)[C@H]7O[C@@H]7OC[C@@H](O)[C@H](O)[C@H]7O)[C@@H](O)[C@H](O)[C@H]6O)C(C)(C)[C@@H]5CC[C@]43C)[C@@H]2CC1(C)C [PITHELUCOSIDE C] | > 10 | Non-toxic | 7.56 | > 10 | 4.24 | 1.66 |
